Reference: patent publication US9446087B2, “Anti-resorptive and bone building dietary supplements and methods of use” (priority 2006, dated 2016)
Several values for one entry are separate records, joined by “and”; a condition that tells them apart may be missing. Identical values can stand only once. Marks after values point to notes of the source that are not given here.

How the values were obtained:
RANK-L [1] = assay: RANK-L gene expression (IL-1b stimulated MG63 cells, qPCR); format: cell-based, human; settings: 3 μg/ml, stimulus alone
Description: Punicalagin test samples are extracted from pomegranates, including from pomegranate peels, skins, fleshy fruit, and seeds using 100% DMSO at 100 mg/ml. Particulate matter in the extraction is not removed. The punicalagin test samples are diluted in MEM without phenol red (estrogenic) and 0.1% FBS to lower background signaling to ten times the final concentrations. Final DMSO concentrations are kept below 0.2% and are kept constant during treatments. DMSO solvent control is used in the untreated group.
MG63 cells (ATCC #CRL-1472), a human-derived osteosarcoma cell line, are plated at 200,000 cells per well in a 12 well plate with phenol red free MEM at 10% FBS. The next day the media is changed to phenol red free MEM at 0.1% FBS. […]
[…] The treated cells the stimulus, IL-1b, are then allowed to incubate for 16 hours at 37° C.
After 16 hours the cells are lysed and the RNA is extracted from the cells with the RNasy purification kit (Qiagen). RNA is reverse transcribed to cDNA and quantified by qPCR using 2-step qRT-PCR reagents (Invitrogen), and 4 μL of purified RNA. Annealing temperature is 57° C. in the Stratagene Mx4000 with 1 μL of RANK-L gene specific primers in a 50 μL reaction (10 μM initial concentration; HLUX3013920, Invitrogen Inc.).
RANK-L and GAPDH gene expression Ct data are obtained. RNA is quantified with adjustments for GAPDH expression. […]

[2] = tested on: type IV collagenase protein (matrix metalloproteinase-9/MMP9); assay: MMP9 protein expression in IL-1B stimulated keratinocyte/fibroblast co-culture; format: cell-based; settings: 10 ng/ml, stimulus alone; untreated 1.0
Description: Keratinocytes and fibroblasts were co-cultured in DMEM containing 0.5% BSA. Co-cultures were exposed to various concentrations of punicalagins (ranging from 0.1%-10%) were extracted from pomegranates. Specifically, the ability of the pomegranate extracts to inhibit type IV collagenase protein (matrix metalloproteinase-9/MMP9) expression at concentrations of 1.0 μg/ml, 10 μg/ml, and 100 μg/ml were tested. Following exposure to the pomegranate extracts, the co-culture cells were stimulated with 10 ng/ml of IL-1B for 18 hours. Following stimulation with IL-1B for 18 hours, and MMP9 concentration was determined in the media as shown below in Table 14.

BMP-2 = BMP-2 Gene Expression Assay (MG-63 cells, real time PCR); format: cell-based, human; settings: 10 μg/ml
Description: It is also possible to test for BMP-2 gene expression and protein expression using assays similar to those described above for testing BMP-2 promoter activity. In particular, for gene expression, the human osteosarcoma cell line, MG-63 (ATCC# CRL-1427), is maintained in phenol-red containing MEM (as recommended by ATCC) at 37° C. and 5% CO2. Twenty-four hours prior to experimentation, 3×10^5 cells are seeded in 12-well plates in phenol-red free MEM. […] After an overnight incubation, RNA is extracted using conventional trizol/guanidine isothiocyanate based lysis. The isolated RNA was digested with RNase-free DNase I to remove any DNA contamination and then reverse transcribed to cDNA using random hexamer as well as oligo(dT) primers according to the manufacturer's instructions (Stratagene). Quantitative real time PCR is performed using FAM-labeled specific primers for BMP-2 and HEX-labeled specific primers for 18S rRNA (Invitrogen). All reactions are carried out in triplicate and the relative amount of mRNAs in treated versus untreated samples is calculated using the comparative CT method established by Applied Biosystems (2001). Gene expression changes of 2-fold or greater are considered significant.

RANK-L [3] = assay: Inhibition of RANK-L production/release (IL-1b stimulated MG-63 cells, ELISA); format: cell-based, human
Description: Weigh between 150 to 250 mg of each ingredient into a 15 ml conical bottomed tube. […] For solvent control, mix 1.5 ml DMSO, 0.9 ml ethanol, and 0.6 ml water. Vortex thoroughly. Sonicate for 10 minute in water bath, room temperature. Vortex thoroughly again. Dilute ingredient stocks in fresh phenol red-free media. Human osteosarcoma cell line, MG-63 (ATCC #CRL-1427), is maintained in phenol-red containing MEM (as recommended by ATCC) at 37° C. and 5% CO2. Twenty-four hours prior to experimentation, 3×10^5 cells are seeded in 12-well plates in phenol-red free MEM. […] Stock solution of TGF-beta is 30 μg/ml (from R&D Systems, cat #100-B-001). After pretreatment incubation period, […] IL-1b (Calbiochem (catalog #407615) and stock solution at 10 μg/ml, cat #407615) were added to the cell cultures for 18 hours at 37° C. Supernatant media from the treated and stimulated cells were removed and total RANK-L proteins were measured using RANK-L ELISA (in triplicate) as described by manufacturer (from APOTECH, catalog #APO-54N-016-k101). The resulting protein quantity was compared to that of media (null) treated stimulated cells to determine percent decrease in total RANK-L protein.

[4] = tested on: calvaria (skull bones) from 4 day old pups; assay: Calvarial Assay to Measure Inhibition of Bone Resorption (45Ca release); format: cell-based, CD-1 mice
Description: In order to label cells of newborn mice in utero, pregnant CD-1 female mice (at timed day 15) were injected with ^45Ca (25 uCi/mouse). […] The bones were incubated at 37° C. in a 5% CO2 humidified incubator for a period of 24 hours following which they were transferred to wells containing 1 ml media with factors added (IL-1, PTH and or compounds.) The treated bones were incubated under the above conditions for a further 72 hours. […] The results were expressed as % ^45Ca release and can be further reported as T/C ratios. For some factors and compounds, modification of this procedure can be used. As most of the osteoclasts are formed in the calvaria following the preincubation period, the factors that affect osteoclast formation may have a greater effect during the preincubation period. Thus, for a number of the compounds, they were included in the preincubation media.

BMP-2 promoter = assay: BMP2 Promoter assay (2T3-BMP2-Luciferase cells, luciferase); format: cell-based, murine
Neonatal murine calvaria = assay: Calvarial Assay to Measure Bone Growth; format: cell-based, Swiss white mice
Description: Neonatal murine calvaria from 4 day old Swiss white mice are excised, placed into BGJ media (Sigma), and cut in half along the midline suture. One milliliter of BGJ media supplemented with 0.1% bovine serum albumin (BSA) is added to each well of a 12 well tissue culture plate (Costar) to which the relevant factors or vehicles are added. Each half calvaria is placed on a stainless steel grid in the above media at the media/air interface. Usually 4 bones per experimental group are used. […] Factors to be tested are added on Day 0 (the day of dissection) and media is changed at 24 and 96 hours (if a 7 day assay is required). Calvaria are maintained in humidified air (5% Co2), at 37° C. Following the period of incubation, the calvaria are then removed and fixed overnight in 10% formalin. The calvaria are then decalcified in 14% EDTA overnight and are then embedded in paraffin wax. Sections are then cut, using a standard microtome, along the midline suture to reveal the coronal suture and the region posterior to this suture. Four micrometer sections were taken initially and at two sequential […] depths. Sections are placed on coated glass slides (Superfrost plus, Fisher Scientific, Pittsburgh, Pa.) and stained with hematoxylin and eosin. The total and new bone area (expressed as mm^2), suture thickness (mm), and number of cells lining the bone surface are determined in the section posterior to the […] suture. Histomorphometric analysis is performed using the Osteomeasure System (Osteometrics INC, Atlanta, Ga.).

BMP-2 protein = assay: BMP-2 Protein Expression Assay (Hu09 cells, ELISA); format: cell-based
Description: The cells are treated with different proteasome inhibitors for 24 hours. After incubation, the conditioned media is transferred into microcentrifuge tubes and centrifuged at 14,000 rpm for 2-3 minutes to remove cellular debris. The concentration of BMP-2 protein in the supernatant is then determined using the standard BMP-2 Elisa Kit (R&D ELISA KIT DBP200). Recombinant hBMP-2 (R&D) is used as a standard.

Compound: IL1B: IL-1b stimulus (Calbiochem)
- RANK-L Expression (fold increase) (RANK-L [1]): 3.3 ± 0 fold increase
- MMP9 protein expression (fold of untreated) [2]: 1.65

Compound: CC(C)Oc1ccc2c(=O)c(-c3ccccc3)coc2c1 [I, 7-isopropoxy isoflavone]
- Fold Change in Gene Expression (BMP-2): No effect
- RANK-L inhibition (%) (RANK-L [3]; 10 μg/ml, listed as Ipriflavone (Ostivone)): 0 ± 4.3% and 2.8 ± 3.9% and 0 ± 2.5%
- % Change in Production/Release Levels (compared to untreated control) (RANK-L [3]; tested at 1 μg/ml): No effect
- Inhibition of Bone Resorption/Release of Ca^2+, % Release ([4]; IL-1 + 1 μg/ml): 38.00 ± 1.41 % Release
- Inhibition of Bone Resorption/Release of Calcium By Combinations of Extracts, % Release ([4]; IL-1 + 1 μg/ml): 29.75 ± 4.54 % Release
- Inhibition of Bone Resorption/Release of Ca^2+, % Release ([4]; IL-1 + 10 μg/ml): 32.50 ± 3.30 % Release
- Inhibition of Bone Resorption/Release of Calcium By Combinations of Extracts, % Release ([4]; IL-1 + 10 μg/ml): 30.25 ± 4.03 % Release
- Inhibition of Bone Resorption/Release of Ca^2+, % Release ([4]; IL-1 + 100 μ/ml): 19.25 ± 1.03^a % Release
- Inhibition of Bone Resorption/Release of Calcium By Combinations of Extracts, % Release ([4]; IL-1 ± 100 μg/ml): 17.50 ± 1.66^a % Release
- BMP2 Promoter assay (ratio to control) (BMP-2 promoter; 0.05 μg/ml): 1.00 FOLD
- BMP2 Promoter assay (ratio to control) (BMP-2 promoter; 0.1 μg/ml): 0.90 FOLD
- BMP2 Promoter assay (ratio to control) (BMP-2 promoter; 0.2 μg/ml): 1.00 FOLD
- BMP2 Promoter assay (ratio to control) (BMP-2 promoter; 0.4 μg/ml): 0.90 FOLD
- BMP2 Promoter assay (ratio to control) (BMP-2 promoter; 0.8 μg/ml): 1.20 FOLD
- BMP2 Promoter assay (ratio to control) (BMP-2 promoter; 1.6 μg/ml): 1.50 FOLD
- BMP2 Promoter assay (ratio to control) (BMP-2 promoter; 3.2 μg/ml): 2.10 FOLD
- BMP2 Promoter assay (ratio to control) (BMP-2 promoter; 6.3 μg/ml): 2.90 FOLD
- BMP2 Promoter assay (ratio to control) (BMP-2 promoter; 12.5 μg/ml): 3.60 FOLD
- BMP2 Promoter assay (ratio to control) (BMP-2 promoter; 25 μg/ml): 3.90 FOLD
- BMP2 Promoter assay (ratio to control) (BMP-2 promoter; 50 μg/ml): 4.40 FOLD
- BMP2 Promoter assay (ratio to control) (BMP-2 promoter; 100 μg/ml): 4.50 FOLD
- Calvarial Assay Results- Bone formation (Neonatal murine calvaria; 1 μg/ml): 2.44 ± 0.66 mm^2 × 10^−3
- Calvarial Assay Results- Bone formation (Neonatal murine calvaria; 10 μg/ml): 6.05 ± 1.12 mm^2 × 10^−3
- Calvarial Assay Results- Bone formation (Neonatal murine calvaria; 100 μg/ml): 7.04 ± 0.69^a mm^2 × 10^−3
- BMP-2 Protein Expression (BMP-2 protein; 1 μg/ml): 2.4 FOLD
- BMP-2 Protein Expression (BMP-2 protein; 10 μg/ml): 1.8 FOLD
- BMP-2 Protein Expression (BMP-2 protein; 100 μg/ml): 1.8 FOLD
